According to US9795647B2, “Compositions and methods for modulating inflammatory potential” (New Chapter Inc., priority 2009, dated 2017):

Columns and labels:
A549 cells = test: Proliferation of A549 nonsmall cell lung cancer cells (overexpress COX-2); assay type: cell-based, human; details: A549 overexpress COX-2
Excerpt: The antitumor efficacy of specifically formulated fish oil 30 diets was studied in human lung cancer A549 xenograft (over expression of COX-2) and H1299 xenograft (lack of COX-2 expression).
FIG. 17 illustrates the relative effect of WholeMega and two commercial fish oil products to inhibit proliferation of human A549 nonsmall cell lung cancer cells (top figure) and human H1299 nonsmall cell lung cancer cells (bottom figure). A549 cells overexpress COX-2, as many cancer cells are known to do. […] The A549 cells over-express COX-2 which normally results in an over-expression/production of PGE2. When provided with an alternate substrate, however, such as fish oil EPA, the resulting product is PGE3 rather than PGE2. […] Clearly, at least one structural feature unique to the Wholemega composition contributes an additional anti-tumor effect. One possibility is that that other oils in Wholemega (omega-5, omega-7 and omega-9 oils), that are not present in the other two fish oils, contribute to an additional inhibitory effect on the growth of the cancer cells. Another possibility would be the relative fractions of certain oils to one another. Yet another possibility would be the herbal oil component, e.g. SCE rosemary and SCE oregano) contribute an added inhibitory effect on the growth of the cancer cells. […]

gram-positive bacteria = details: purified cPA (>99%); cited from earlier work
Selenomonas artemidis = details: only one of 45 compounds surveyed; cited from earlier work
beta-cell = details: 0.5 mmol/l, medium with 5.5, 11.1 or 33.3 mmol/l glucose, 4 days; cited from earlier work

Which “effect on proliferation of A549 cells” value (A549 cells) does the source give for `CCCCC[C@H](O)/C=C/[C@H]1[C@H](O)CC(=O)[C@@H]1C/C=C\CCCC(=O)O` [PGE2] here?
Its value is “slightly stimulates proliferation”.

With `CC/C=C\C[C@H](O)/C=C/[C@H]1[C@H](O)CC(=O)[C@@H]1C/C=C\CCCC(=O)O` [PGE3] as the compound, how does the “effect on proliferation of A549 cells” value (A549 cells) read?
Its value is “inhibits proliferation”.

With `CCCCCCCCC/C=C\CCCCC(=O)O` [cPA, palmitoleic acid (C16:1delta6, cPA)] as the compound, how does the “minimal inhibitory concentration (MIC)” value (gram-positive bacteria) read?
The value was 10 to 20 µg/mL.

For `CCCCC=CCCCCCCCC(=O)O` [myristoleic acid, 9-tetradecenoic acid], which “inhibitory concentration towards S. artemidis” value (Selenomonas artemidis) is on record?
Its value is < 100 micrograms/ml.

For `CCCCCC/C=C\CCCCCCCC(=O)O` [palmitoleic acid], which “beta-cell DNA fragmentation” value (beta-cell) is on record?
The value was “did not affect”.
